Experimental data from patent US20090247559A1 (Exelixis, Inc., priority 2007, published 2009).
pIC50: −log10 of the molar value.

Tests used:
[1] = biological target: PIM (PIM-1, PIM-2, and/or PIM-3); experiment: PIM-1, PIM-2 and PIM-3 inhibition, biochemical chemiluminescence assays (Kinase Glo, IC50 determination); details: Table 1 activity class; PIM refers to PIM-1, PIM-2, and/or PIM-3; read-out: PIM IC50 (Activity B)
Protocol: (§1) The IC50 evaluation of compounds against the PIM-1 oncogene was performed in a Chemiluminesence assay utilizing a Greiner 384-well white medium binding white plate format. […] Following an incubation period of 120 minutes at ambient temperature (24-27° C.), 10 μL of Kinase Glo (Promega) was added. The luminescence was measured following a Luminescence Protocol on a Victor plate reader.
as §1, with “PIM-2” for “PIM-1”, “format. […] The assay procedure involves compound dilution followed by addition of 3 nM PIM-2 to the designated well plates and subsequent pre-incubation of the compounds with the enzyme for 30 minutes at ambient temperature (24-27° C.).” for “format.”
as §1, with “PIM-3 Oncogene” for “PIM-1 oncogene”

[2] = biological target: CK2 (Homo sapiens, UniProt P68400); experiment: CK2 inhibition, biochemical chemiluminescence holoenzyme assay (Kinase Glo, IC50 determination); details: Table 1 activity class; symbol given only if active; read-out: CK2 IC50 (Activity C)
Protocol: Characterization of CK2 Inhibition in a Biochemical Chemiluminesence Assay (IC50 Determination):
The IC50 evaluation of compounds against CK2 was performed in a Chemiluminesence Holoenzyme assay utilizing a Greiner 384-well white medium binding white plate format. […] The assay procedure involves the compound dilution scheme followed by addition of 10 μL of the substrate twice, followed by 10 μL twice of the respective enzyme or buffer to the designated well plates and subsequent pre-incubation of the compounds. Following an incubation period of 150 minutes at ambient temperature (24-27° C.), 10 μL of Kinase Glo (Promega) was added. The luminescence was measured following a Luminescence Protocol on a Victor plate reader.

Sequence of CK2 (P68400 whole entry): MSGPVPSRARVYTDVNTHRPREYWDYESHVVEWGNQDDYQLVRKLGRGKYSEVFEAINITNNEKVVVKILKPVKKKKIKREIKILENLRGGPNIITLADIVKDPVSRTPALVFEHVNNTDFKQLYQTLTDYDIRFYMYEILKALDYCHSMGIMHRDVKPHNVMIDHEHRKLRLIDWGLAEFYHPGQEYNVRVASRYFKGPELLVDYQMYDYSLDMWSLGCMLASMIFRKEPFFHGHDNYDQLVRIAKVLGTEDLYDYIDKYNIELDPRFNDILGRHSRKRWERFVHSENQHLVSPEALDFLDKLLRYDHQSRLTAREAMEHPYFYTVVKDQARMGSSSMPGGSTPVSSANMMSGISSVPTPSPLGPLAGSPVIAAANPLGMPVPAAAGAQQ
Sequence of CK2 (P67870 whole entry partner): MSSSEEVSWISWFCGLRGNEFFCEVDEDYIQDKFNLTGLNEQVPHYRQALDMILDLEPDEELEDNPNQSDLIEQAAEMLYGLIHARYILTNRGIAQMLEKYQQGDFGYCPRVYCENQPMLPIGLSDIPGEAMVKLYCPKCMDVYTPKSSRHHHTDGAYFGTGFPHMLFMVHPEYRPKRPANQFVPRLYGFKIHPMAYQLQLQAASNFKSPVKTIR

Compound | pIC50 [1] | pIC50 [2]
Cc1cc(NCC2CCNCC2)ccc1-c1nc2c(oc3ccc(Br)cc32)c(=O)[nH]1 [Compound 54, 8-bromo-2-{2-methyl-4-[(piperidin-4-ylmethyl)amino]phenyl}[1]benzofuro[3,2-d]pyrimidin-4(3H)-one] | > 5.00 | > 5.00
O=c1[nH]c(-c2ccccn2)nc2c1oc1ccc(Br)cc12 [Compound 57, 8-Bromo-2-pyridin-2-yl[1]benzofuro[3,2-d]pyrimidin-4(3H)-one] | > 5.00 | > 5.00
O=c1[nH]c(-c2ccccc2F)nc2c1oc1ccc(Br)cc12 [Compound 58, 8-Bromo-2-(2-fluorophenyl)[1]benzofuro[3,2-d]pyrimidin-4(3H)-one] | > 5.00 | > 5.00
O=c1[nH]c(-c2cccs2)nc2c1oc1ccc(Br)cc12 [Compound 59, 8-bromo-2-(2-thienyl)[1]benzofuro[3,2-d]pyrimidin-4(3H)-one] | > 5.00 | > 5.00
Cc1cc(NC(=O)CN(C)C)ccc1-c1nc2c(oc3ccc(Br)cc32)c(=O)[nH]1 [Compound 62, N-[4-(8-bromo-4-oxo-3,4-dihydro[1]benzofuro[3,2-d]pyrimidin-2-yl)-3-methylphenyl]-N′2′,N′2′-dimethylglycinamide] | > 5.00 | > 5.00
O=c1[nH]c(-c2ccccc2C(F)(F)F)nc2c1oc1ccc(Br)cc12 [Compound 65, 8-bromo-2-[2-(trifluoromethyl)phenyl][1]benzofuro[3,2-d]pyrimidin-4(3H)-one] | > 5.00 | > 5.00
COc1cc(Br)c(-c2nc3c(oc4ccc(Br)cc43)c(=O)[nH]2)cc1OC [Compound 66, 8-bromo-2-[2-bromo-4,5-bis(methyloxy)phenyl][1]benzofuro[3,2-d]pyrimidin-4(3H)-one] | > 5.00 | > 5.00
COc1ccc(F)c(-c2nc3c(oc4ccc(Br)cc43)c(=O)[nH]2)c1 [Compound 67, 8-bromo-2-[2-fluoro-5-(methyloxy)phenyl][1]benzofuro[3,2-d]pyrimidin-4(3H)-one] | > 5.00 | > 5.00
COc1ccc(-c2nc3c(oc4ccc(Br)cc43)c(=O)[nH]2)c(Cl)c1OC [Compound 68, 8-bromo-2-[2-chloro-3,4-bis(methyloxy)phenyl][1]benzofuro[3,2-d]pyrimidin-4(3H)-one] | > 5.00 | > 5.00
O=c1[nH]c(-c2ccc(Cl)s2)nc2c1oc1ccc(Br)cc12 [Compound 69, 8-bromo-2-(5-chloro-2-thienyl)[1]benzofuro[3,2-d]pyrimidin-4(3H)-one] | > 5.00 | > 5.00
O=c1[nH]c(-c2c(F)cccc2F)nc2c1oc1ccc(Br)cc12 [Compound 70, 8-bromo-2-(2,6-difluorophenyl)[1]benzofuro[3,2-d]pyrimidin-4(3H)-one] | > 5.00 | > 5.00
CN1CCN(c2ccc(NCc3nc4c(oc5ccc(Br)cc54)c(=O)[nH]3)cc2)CC1 [Compound 75, 8-bromo-2-({[4-(4-methylpiperazin-1-yl)phenyl]amino}methyl)[1]benzofuro[3,2-d]pyrimidin-4(3H)-one] | > 5.00 | > 5.00
CCc1ccccc1-c1nc2c(oc3ccc(Br)cc32)c(=O)[nH]1 [Compound 77, 8-bromo-2-(2-ethylphenyl)[1]benzofuro[3,2-d]pyrimidin-4(3H)-one] | > 5.00 | > 5.00
COc1ccc(Br)c(-c2nc3c(oc4ccc(Br)cc43)c(=O)[nH]2)c1 [Compound 78, 8-bromo-2-[2-bromo-5-(methyloxy)phenyl][1]benzofuro[3,2-d]pyrimidin-4(3H)-one] | > 5.00 | > 5.00
COc1ccc(-c2nc3c(oc4ccc(Br)cc43)c(=O)[nH]2)c(Cl)c1 [Compound 79, 8-bromo-2-[2-chloro-4-(methyloxy)phenyl][1]benzofuro[3,2-d]pyrimidin-4(3H)-one] | > 5.00 | > 5.00
CC(=O)Nc1ccc(-c2nc3c(oc4ccc(Br)cc43)c(=O)[nH]2)cc1 [Compound 80, N-[4-(8-bromo-4-oxo-3,4-dihydro[1]benzofuro[3,2-d]pyrimidin-2-yl)phenyl]acetamide] | > 5.00 | > 5.00
O=c1[nH]c(-c2ncc[nH]2)nc2c1oc1ccc(Br)cc12 [Compound 85, 8-bromo-2-(1H-imidazol-2-yl)[1]benzofuro[3,2-d]pyrimidin-4(3H)-one] | > 5.00 | > 5.00

Compound | pIC50 [1] | pIC50 [2]
CSc1ccccc1-c1nc2c(oc3ccc(Br)cc32)c(=O)[nH]1 [Compound 88, 8-bromo-2-[2-(methylthio)phenyl][1]benzofuro[3,2-d]pyrimidin-4(3H)-one] | > 5.00 | > 5.00
O=C(NC1CCCCC1)c1cccc(-c2nc3c(oc4ccc(Br)cc43)c(=O)[nH]2)c1 [Compound 92, 3-(8-bromo-4-oxo-3,4-dihydro[1]benzofuro[3,2-d]pyrimidin-2-yl)-N-cyclohexylbenzamide] | > 5.00 | > 5.00
O=c1[nH]c(-c2cccc(Cl)c2)nc2c1oc1ccc(Br)cc12 [Compound 93, 8-Bromo-2-(3-chlorophenyl)[1]benzofuro[3,2-d]pyrimidin-4(3H)-one] | > 5.00 | > 5.00
O=c1[nH]c(-c2ccccc2Cl)nc2c1oc1ccc3ccccc3c12 [Compound 96, 10-(2-Chlorophenyl)naphtho[1′,2′:4,5]furo[3,2-d]pyrimidin-8(9H)-one] | > 5.00 | > 5.00
O=C(NCc1ccccc1)c1cccc(-c2nc3c(oc4ccc(Br)cc43)c(=O)[nH]2)c1 [Compound 99, 3-(8-bromo-4-oxo-3,4-dihydro[1]benzofuro[3,2-d]pyrimidin-2-yl)-N-(phenylmethyl)benzamide] | > 5.00 | > 5.00
CC(C)CNC(=O)c1cccc(-c2nc3c(oc4ccc(Br)cc43)c(=O)[nH]2)c1 [Compound 101, 3-(8-bromo-4-oxo-3,4-dihydro[1]benzofuro[3,2-d]pyrimidin-2-yl)-N-(2-methylpropyl)benzamide] | > 5.00 | > 5.00
CN1CCN(c2ccc(COCc3nc4c(oc5ccc(Br)cc54)c(=O)[nH]3)cc2)CC1 [Compound 102, 8-bromo-2-[({[4-(4-methylpiperazin-1-yl)phenyl]methyl}oxy)methyl][1]benzofuro[3,2-d]pyrimidin-4(3H)-one] | > 5.00 | > 5.00
CN(C)c1ccc(CNCc2nc3c(oc4ccc(Br)cc43)c(=O)[nH]2)cc1 [Compound 104, 8-bromo-2-[({[4-(dimethylamino)phenyl]methyl}amino)methyl][1]benzofuro[3,2-d]pyrimidin-4(3H)-one] | > 5.00 | > 5.00
O=c1[nH]c(CCN2CCCC2)nc2c1oc1ccc(Br)cc12 [Compound 105] | > 5.00 | > 5.00
O=c1[nH]c(CC2CCNCC2)nc2c1oc1ccc(Br)cc12 [Compound 122, 8-bromo-2-(piperidin-4-ylmethyl)[1]benzofuro[3,2-d]pyrimidin-4(3H)-one] | > 5.00 | > 5.00
CN(C)CCCCNc1ccc(-c2nc3c(oc4ccc(Br)cc43)c(=O)[nH]2)c(Cl)c1 [Compound 136, 8-bromo-2-(2-chloro-4-{[4-(dimethylamino)butyl]amino}phenyl)[1]benzofuro[3,2-d]pyrimidin-4(3H)-one] | > 5.00 | > 5.00
O=c1[nH]c(-c2ccc(NCc3c[nH]cn3)cc2Cl)nc2c1oc1ccc(Br)cc12 [Compound 139, 8-bromo-2-{2-chloro-4-[(1H-imidazol-4-ylmethyl)amino]phenyl}[1]benzofuro[3,2-d]pyrimidin-4(3H)-one] | > 5.00 | > 5.00
COc1ccc2oc3c(=O)[nH]c(-c4cc([N+](=O)[O-])ccc4Cl)nc3c2c1 [Compound 145, 2-(2-chloro-5-nitrophenyl)-8-(methyloxy)[1]benzofuro[3,2-d]pyrimidin-4(3H)-one] | > 5.00 | > 5.00
COC(=O)c1ccc(-c2nc3c(oc4ccc(Br)cc43)c(=O)[nH]2)c(Cl)c1 [Compound 146, methyl 4-(8-bromo-4-oxo-3,4-dihydro[1]benzofuro[3,2-d]pyrimidin-2-yl)-3-chlorobenzoate] | > 5.00 | > 5.00
CCc1nccn1Cc1nc2c(oc3ccc(Br)cc32)c(=O)[nH]1 [Compound 149, 8-bromo-2-[(2-ethyl-1H-imidazol-1-yl)methyl][1]benzofuro[3,2-d]pyrimidin-4(3H)-one] | > 5.00 | > 5.00
CCN1CCN(Cc2nc3c(oc4ccc(Br)cc43)c(=O)[nH]2)CC1 [Compound 150, 8-bromo-2-[(4-ethylpiperazin-1-yl)methyl][1]benzofuro[3,2-d]pyrimidin-4(3H)-one] | > 5.00 | > 5.00
